Tests used:
[1] = biological target: T1, E. coli SC (^EcSC, beta ring, DnaN) (Escherichia coli, UniProt P0A988); assay: ITC, peptide interaction with E. coli sliding clamp; assay type: binding; conditions: for ΔH (kcal/mole): ITC 30° C. (303.15 K); for ΔH (kcal/mole) / Kd (nM) / ΔG (kcal/mole) / −TΔS (kcal/mole): Table 2A, ^EcSC, Ni = no specific interaction
T1 construct: inferred from the pET15b vector and the Ni-NTA/imidazole purification; made in house; host or cells: E. coli BL21 (DE3) pLys
Experimental: The DnaN protein was expressed from plasmids pET15b, containing the dnaN gene from E. coli, transfected in BL21 (DE3) pLys E. coli strain. Cells were grown in LB at 37° C. to OD 0.5, then induced by IPTG (0.1 mM) at 28° C. overnight. DnaN protein was first enriched on a Ni-NTA column, eluted with an imidazole step (300 mM) and further purified on a Source Q column in buffer containing 20 mM Tris HCl pH 7.5, 0.5 mM EDTA and 10% glycerol, using a gradient from 0 to 0.5 M NaCl. After a final ultracentrifugation (45K, 1 h, 20° C.), soluble proteins were concentrated on a Centricon 30K (Millipore) in the same buffer and stored at 4° C. in 2 M ammonium sulfate.
ITC experiments were performed on a iTC200 (Microcal Malvern Panalytical) or PEAQ-ITC instrument (Microcal Malvern Panalytical). The E. coli SC were washed extensively with ITC buffer (R1 buffer: 10 mM Hepes pH 7.4, 0.15 M NaCl, 3 mM EDTA) on Centrikon 10K at 4° C. before ITC experiments. […] Similarly, E. coli 70S ribosome particles were also washed extensively with ITC 70S buffer (50 mM Tris HCl pH7.5, 30 mM KCl, 70 mM NH4Cl, 7 mM MgCl2, 1 mM DTT, 5% glycerol) on Centrikon 100K at 4° C. before ITC experiments. […] […] Data were corrected from control experiments in which peptides were injected in ITC buffer solution. Each titration was performed at least twice. Analyses of experimental data were performed with AFFINImeter software (https://www.affinimeter.com; S4S, Santiago de Compostela, Spain).

[2] = test system: E. coli 70S ribosome (^Ec70S); assay: ITC, peptide interaction with E. coli 70S ribosome; assay type: binding; conditions: ITC 30° C., Table 2B, ^Ec70S; for Kd: FITC peptides (*), values not well defined, weak interaction; for ΔG / ΔH / −TΔS: Ni = no specific interaction, FITC peptides (*) values not well defined
Experimental: E. coli MRE600 cells were grown at 37° C. in LB medium until OD^600=1. Cells were centrifuged at 4° C., and pellets were resuspended in buffer A (20 mM Tris HCl pH 7.5; 200 mM NH4Cl; 20 mM MgCl2; 0.1 mM EDTA; 6 mM β-mercaptoethanol) and lysed using a French press at 1.6 kbar. The crude lysate was centrifuged (18 200 rpm) for 30 mn at 4° C. The supernatant was further centrifuged (47000 rpm) at 4° C. for 4 hours and the pellet resuspended in 12.5 ml of buffer A. This solution was laid on a 30% sucrose cushion and centrifuged (34 000 rpm) for 19 hours at 4° C. The ribosome pellet was resuspended in 12.5 ml buffer B (20 mM Tris HCl pH 7.5; 50 mM NH4Cl; 10 mM MgCl2; 0.1 mM EDTA; 6 mM β-mercaptoethanol) and centrifuged again (18 200 rpm) for 1 hour at 4° C. The supernatant was concentrated on Centrikon 100K (Millipore) and washed extensively with ITC 70S buffer. Ribosome concentration was determined by UV absorption at 260 nm. Samples were snap frozen in liquid nitrogen and kept at −80° C.
ITC experiments were performed on a iTC200 (Microcal Malvern Panalytical) or PEAQ-ITC instrument (Microcal Malvern Panalytical). The E. coli SC were washed extensively with ITC buffer (R1 buffer: 10 mM Hepes pH 7.4, 0.15 M NaCl, 3 mM EDTA) on Centrikon 10K at 4° C. before ITC experiments. […] Similarly, E. coli 70S ribosome particles were also washed extensively with ITC 70S buffer (50 mM Tris HCl pH7.5, 30 mM KCl, 70 mM NH4Cl, 7 mM MgCl2, 1 mM DTT, 5% glycerol) on Centrikon 100K at 4° C. before ITC experiments. Peptides (100 to 400 μM) were titrated at 30° C. (303.15 K) in sequential injections (usually 2 μl each) into a SC (20 or 30 μM) or 70S (10 to 15 μM) solution. Data were corrected from control experiments in which peptides were injected in ITC buffer solution. Each titration was performed at least twice. Analyses of experimental data were performed with AFFINImeter software (https://www.affinimeter.com; S4S, Santiago de Compostela, Spain).
The lack of interaction with the ribosome of E. coli has been measured by ITC at 30° C.:
The interactions of these peptides with the E. coli SC (beta ring) and the ribosome were measured by ITC at […]: […]

E. coli D22 strain = assay: microbe, parasite or virus in culture; assay type: cell-based
Excerpt: E. coli strain D22 (F-, IpxC101, proA23, lac-28, tsx-81, trp-30, his-51, tufA1, rpsL173(strR), ampCp-1 was purchased at E. coli Genetic Stock Center (Yale University) and used in the determination of MIC and in the peptide penetration assays. E. coli ATCC23724 cells were used to infect D. melanogaster flies. 70S ribosomes were purified from the E. coli MRE600 strain (Accession AY140951) and BL21 (DE3) pLys strain was used for production of the DnaN protein.
E. coli strains were cultivated on either agar or liquid 1× Mueller Hinton broth unless specified. MIC assays were performed in duplicate in 96-well microtiter plates on the basis of the protocol recommended by the Clinical and Laboratory Standards Institute. Briefly, a mix of 5-6 fresh (less than 36 hours) colonies grown on MH agar plates were inoculated in 3 ml of MH broth and incubated for about 16 h at 37° C. under agitation. 30 μl of this saturated culture were inoculated in 3 ml of fresh medium and allowed to grow until OD600 nm of about 0.6-0.8. Dilution to an OD600 nm of 0.002 was made in MH broth. Within a time laps not exceeding 30 min, 50 μl of this cell suspension was added to 50 μl of MH broth (containing or not the peptide/antibiotic diluted in MH broth) in wells of a 96-well round bottom microwell plate (Greiner; final cell density about 2 to 5×10^5 cfu/ml). Plates were incubated at 37° C. for 18-24 h and final turbidity of each well was measured at 620 nm using a Multiskan FC microplate reader (Thermo Scientific). MIC was defined as the minimal antibiotic concentration that result in no increase of turbidity at that time. Each MIC determination was performed in duplicate and at least in two independent experiments. Plating of 75 μl of the content of the wells of interest on LB Agar plates was used to determine the MBC that is defined by a decrease of at least 99.9% of cell viability as compared to the number of viable cells in the inoculum (about 2 to 5×10^4 cfu).

E. coli D22 cells = conditions: FIG. 1
Experimental: FIG. 1 concerns the analysis of peptide penetration into E. coli cells. (a) Fluorescence microscopy of E. coli cells exposed to the three different FITC labeled peptides.
In order to analyse the penetration capacity of the peptides in E. coli D22 cells, FITC-labeled peptides were added to 1 ml of bacterial cultures (OD600=0.8) at a final concentration of 8 μg/ml. The cells were allowed to acquire the peptides for 1 h at 37° C., washed 3 times with 0.5 ml PBS, fixed with 1% formaldehyde solution in PBS for 45 min at room temperature, washed 3 times with 0.5 ml PBS and finally resuspended in 50 μl PBS. Cells were visualized using a Leica DM5500 microscope equipped with a 100× objective and images were processed using Fiji software. One-way ANOVA statistical analysis was performed with the R package.

Human PCNA = Human PCNA (Homo sapiens, UniProt P12004); assay: ITC, peptide interaction with human PCNA; assay type: binding; conditions: ITC 30° C., Human PCNA
Experimental: The inventors have compared the affinities of the prototypical P7 SC-binding peptide for the bacterial SC and for the eukaryotic functional homolog “Proliferating Cell Nuclear Antigen” PCNA. The same analysis was performed with the DPD1 peptide that contains a well-described specific PCNA Interacting Peptide (PIP) sequence ([…]).

T1 sequence (P0A988 whole entry): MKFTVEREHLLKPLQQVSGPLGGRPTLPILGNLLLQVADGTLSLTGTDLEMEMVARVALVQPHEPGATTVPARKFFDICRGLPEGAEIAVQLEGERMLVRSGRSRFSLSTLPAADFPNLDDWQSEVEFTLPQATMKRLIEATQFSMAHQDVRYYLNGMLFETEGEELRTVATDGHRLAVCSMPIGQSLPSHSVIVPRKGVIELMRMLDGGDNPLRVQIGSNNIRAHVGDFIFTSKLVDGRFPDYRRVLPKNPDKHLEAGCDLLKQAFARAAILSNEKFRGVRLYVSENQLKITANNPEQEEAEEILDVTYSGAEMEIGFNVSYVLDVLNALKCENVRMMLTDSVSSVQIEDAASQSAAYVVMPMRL
Chain of Human PCNA (P12004 whole entry): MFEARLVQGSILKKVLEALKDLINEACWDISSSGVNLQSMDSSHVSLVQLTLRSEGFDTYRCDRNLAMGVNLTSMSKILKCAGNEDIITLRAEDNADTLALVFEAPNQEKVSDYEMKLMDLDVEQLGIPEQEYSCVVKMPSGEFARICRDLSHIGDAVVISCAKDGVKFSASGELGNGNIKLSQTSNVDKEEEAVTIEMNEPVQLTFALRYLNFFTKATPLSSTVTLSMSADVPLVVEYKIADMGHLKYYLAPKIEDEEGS

Compound | interaction with ^EcSC, in words ([1]; ITC 30° C.) | ΔH (kcal/mole) [1] | Kd (nM) ([1]; ITC 30° C.) | ΔG (kcal/mole) ([1]; ITC 30° C.) | −TΔS (kcal/mole) ([1]; ITC 30° C.) | Kd [2] [µM] | ΔG [2] [kcal/mol] | ΔH [2] [kcal/mol] | −TΔS [2] [kcal/mol] | MIC (μM) (E. coli D22 strain; D22 strain) [µM] | MIC (μg/ml) (E. coli D22 strain; D22 strain) [µg/mL] | fold increase in MIC as compared to Py (E. coli D22 strain; E. coli D22) [fold] | penetration into E. coli cells, times more efficiently than P72 or P150 (E. coli D22 cells; average FITC signal of more than 100 bacteria) | entry into E. coli cells, times less efficiently than P122 (E. coli D22 cells; FITC staining after exposure to equal amounts) | interaction with E.coli SC, in words ([1]; ITC 30° C., specificity comparison with PCNA) | Kd (Human PCNA) [µM] | ΔH (Human PCNA) [kcal/mol]
CC[C@H](C)[C@H](NC(=O)[C@@H]1CCCN1C(=O)[C@H](CCCNC(=N)N)NC(=O)[C@@H]1CCCN1C(=O)[C@@H]1CCCN1C(=O)[C@@H](NC(=O)[C@@H]1CCCN1C(=O)[C@H](CCCNC(=N)N)NC(=O)[C@@H]1CCCN1C(=O)[C@H](CC(C)C)NC(=O)[C@H](Cc1ccc(O)cc1)NC(=O)[C@H](CO)NC(=O)CNC(=O)[C@H](CCCCN)NC(=O)[C@H](CC(=O)O)NC(=O)[C@@H](NC(=O)[C@H](CCCCN)NC(=O)c1ccc2c(c1)C(=O)OC21c2ccc(O)cc2Oc2cc(O)ccc21)C(C)C)[C@@H](C)O)C(=O)N[C@@H](Cc1ccc(O)cc1)C(=O)N[C@@H](CC(N)=O)C(=O)N[C@@H](CCCNC(=N)N)C(=O)N[C@@H](CC(N)=O)C(N)=O [Peptide P122] | do not interact | Ni | Ni | Ni | Ni | > 10 | -6.91 | -20.1 | 13.3 | 181 to 362 | 512 to 1024 | 64 to 512 | about 3 times |  |  |  | 
CC[C@H](C)[C@H](NC(=O)[C@@H]1CCCN1C(=O)[C@H](CCCNC(=N)N)NC(=O)[C@@H]1CCCN1C(=O)[C@@H]1CCCN1C(=O)[C@@H](NC(=O)[C@@H]1CCCN1C(=O)[C@H](CCCNC(=N)N)NC(=O)[C@@H]1CCCN1C(=O)[C@H](CC(C)C)NC(=O)[C@H](Cc1ccc(O)cc1)NC(=O)[C@H](CO)NC(=O)CNC(=O)[C@H](CCCCN)NC(=O)[C@H](CC(=O)O)NC(=O)[C@@H](NC(=O)[C@H](CCCCN)NC(=O)c1ccc2c(c1)C(=O)OC21c2ccc(O)cc2Oc2cc(O)ccc21)C(C)C)[C@@H](C)O)C(=O)N[C@@H](Cc1ccc(O)cc1)C(=O)N[C@@H](CC(N)=O)C(=O)N[C@@H](CCCNC(=N)N)C(=O)N[C@@H](CC(N)=O)C(=O)NCC(=O)N1CCC[C@H]1C(=O)N[C@@H](CCCNC(=N)N)C(=O)N[C@@H](CC1CCCCC1)C(=O)N[C@@H](Cc1ccccc1)C(=O)N[C@@H](CCC(N)=O)C(=O)N[C@@H](CC(C)C)C(=O)N[C@@H](CC(=O)O)C(=O)O [Peptide P72] | do not interact | Ni | Ni | Ni | Ni | > 10 | -5.98 | -8.92 | 2.94 | >269.9 |  |  |  | about 3 times |  |  | 
peptide that contains a well-described specific PCNA Interacting Peptide (PIP) sequence (QKKITDYF) [DPD1] |  |  |  |  |  |  |  |  |  |  |  |  |  |  | no interaction | 0.158 | -9.94
